≈ marks a conversion by molar mass, not a printed value.
Assays:
Type in all cases: functional
Streptococcus pneumoniae [1] = assay: Antibacterial activity against Streptococcus pneumoniae ATCC 6301
Streptococcus pneumoniae [2] = assay: Antibacterial activity against Streptococcus pneumoniae ATCC 700671
Streptococcus pneumoniae [3] = assay: Antibacterial activity against macrolide resistant Streptococcus pneumoniae ATCC 700676
Streptococcus pneumoniae [4] = assay: Antibacterial activity against macrolide resistant Streptococcus pneumoniae ATCC 700677
Streptococcus pneumoniae [5] = assay: Antibacterial activity against macrolide resistant Streptococcus pneumoniae ATCC 700905
Streptococcus pneumoniae [6] = assay: Antibacterial activity against macrolide resistant Streptococcus pneumoniae ATCC 700906
Streptococcus pneumoniae [7] = assay: Antibacterial activity against Streptococcus pneumoniae ATCC 49619
Staphylococcus aureus [8] = assay: Antibacterial activity against Staphylococcus aureus ATCC 6538p
Staphylococcus aureus [9] = assay: Antibacterial activity against macrolide resistant Staphylococcus aureus ATCC 33591
Staphylococcus aureus [10] = assay: Antibacterial activity against macrolide resistant Staphylococcus aureus ATCC 141541
Staphylococcus aureus [11] = assay: Antibacterial activity against macrolide resistant Staphylococcus aureus ATCC BAA-39
Staphylococcus aureus [12] = assay: Antibacterial activity against macrolide resistant Staphylococcus aureus ATCC BAA-44
Staphylococcus aureus [13] = assay: Antibacterial activity against Staphylococcus aureus ATCC 29213
[14] = system: Staphylococcus epidermidis; assay: Antibacterial activity against Staphylococcus epidermidis ATCC 12228
Enterococcus faecalis = assay: Antibacterial activity against Enterococcus faecalis ATCC 51575
Haemophilus influenzae [15] = assay: Antibacterial activity against Haemophilus influenzae ATCC 9006
Haemophilus influenzae [16] = assay: Antibacterial activity against Haemophilus influenzae ATCC 49766

SMILES	MIC (Streptococcus pneumoniae [1]) [µg/mL]	MIC (Streptococcus pneumoniae [2]) [µg/mL]	MIC (Streptococcus pneumoniae [3]) [µg/mL]	MIC (Streptococcus pneumoniae [4]) [µg/mL]	MIC (Streptococcus pneumoniae [5]) [µg/mL]	MIC (Streptococcus pneumoniae [6]) [µg/mL]	MIC (Streptococcus pneumoniae [7]) [µg/mL]	MIC (Staphylococcus aureus [8]) [µg/mL]	MIC (Staphylococcus aureus [9]) [µg/mL]	MIC (Staphylococcus aureus [10]) [µg/mL]	MIC (Staphylococcus aureus [11]) [µg/mL]	MIC (Staphylococcus aureus [12]) [µg/mL]	MIC (Staphylococcus aureus [13]) [µg/mL]	MIC [14] [µg/mL]	MIC (Enterococcus faecalis) [µg/mL]	MIC (Haemophilus influenzae [15]) [µg/mL]	MIC (Haemophilus influenzae [16]) [µg/mL]
CC[C@H]1OC(=O)C[C@@H](O)[C@H](C)[C@@H](O[C@@H]2O[C@H](C)[C@@H](O)[C@H](N(C)C)[C@H]2O)[C@@H](CC=O)C[C@@H](C)C(=N/OCCCCc2cnc3ccccc3c2)/C=C/C(C)=C/C1CO (some centres not stated)	0.025 (≈ 0.0314 µM)	0.025 (≈ 0.0314 µM)	0.025 (≈ 0.0314 µM)	0.025 (≈ 0.0314 µM)	0.025 (≈ 0.0314 µM)	> 12.5	0.049 (≈ 0.0616 µM)	0.025 (≈ 0.0314 µM)	> 12.5	0.2 (≈ 0.251 µM)	> 12.5	> 12.5	0.2 (≈ 0.251 µM)	0.2 (≈ 0.251 µM)	> 12.5	6.25 (≈ 7.85 µM)	6.25 (≈ 7.85 µM)
CC[C@H]1OC(=O)C[C@@H](O)[C@H](C)[C@@H](O[C@@H]2O[C@H](C)[C@@H](O)[C@H](N(C)C)[C@@H]2O)[C@@H](CCN2CC(C)CC(C)C2)C[C@@H](C)C(=N/O)/C=C/C(C)=C/C1CO (some centres not stated)	0.78 (≈ 1.1 µM)	1.56 (≈ 2.2 µM)	6.25 (≈ 8.8 µM)	> 12.5	6.25 (≈ 8.8 µM)	> 12.5	1.56 (≈ 2.2 µM)	3.12 (≈ 4.39 µM)	> 12.5	> 12.5	> 12.5	> 12.5	12.5 (≈ 17.6 µM)	> 12.5	> 12.5		
CC[C@H]1OC(=O)C[C@@H](O)[C@H](C)[C@@H](O[C@@H]2O[C@H](C)[C@@H](O)[C@H](N(C)C)[C@@H]2O)[C@@H](CCN2CC(C)CC(C)C2)C[C@@H](C)C(=O)/C=C/C(C)=C/C1CO (some centres not stated)	0.39 (≈ 0.561 µM)	0.78 (≈ 1.12 µM)	1.56 (≈ 2.24 µM)	> 12.5	1.56 (≈ 2.24 µM)	> 12.5	0.78 (≈ 1.12 µM)	0.39 (≈ 0.561 µM)	> 12.5	1.56 (≈ 2.24 µM)	> 12.5	> 12.5	1.56 (≈ 2.24 µM)	0.78 (≈ 1.12 µM)	> 12.5		
CC[C@H]1OC(=O)C[C@@H](O)[C@H](C)[C@@H](O[C@@H]2O[C@H](C)[C@@H](O)[C@H](N(C)C)[C@@H]2O)[C@@H](CCN2CC(C)CC(C)C2)C[C@@H](C)C(=N\OCCCc2ccc3ncccc3c2)/C=C/C(C)=C/C1CO (some centres not stated)	6.25 (≈ 7.11 µM)	6.25 (≈ 7.11 µM)	12.5 (≈ 14.2 µM)	> 12.5	12.5 (≈ 14.2 µM)	> 12.5	6.25 (≈ 7.11 µM)	> 12.5	> 12.5	> 12.5	> 12.5	> 12.5	> 12.5	> 12.5	> 12.5		
CC[C@H]1OC(=O)C[C@@H](O)[C@H](C)[C@@H](O[C@@H]2O[C@H](C)[C@@H](O)[C@H](N(C)C)[C@@H]2O)[C@@H](CCN2CC(C)CC(C)C2)C[C@@H](C)C(=N\OCCCCc2ccc3ccccc3c2)/C=C/C(C)=C/C1CO (some centres not stated)	6.25 (≈ 7 µM)	12.5 (≈ 14 µM)	> 12.5	> 12.5	12.5 (≈ 14 µM)	> 12.5	12.5 (≈ 14 µM)	> 12.5	> 12.5	> 12.5	> 12.5	> 12.5	> 12.5	> 12.5	> 12.5		
CC[C@H]1OC(=O)C[C@@H](O)[C@H](C)[C@@H](O[C@@H]2O[C@H](C)[C@@H](O)[C@H](N(C)C)[C@@H]2O)[C@@H](CCN2CC(C)CC(C)C2)C[C@@H](C)C(=N\OCCOc2ccccc2)/C=C/C(C)=C/C1CO (some centres not stated)	0.2 (≈ 0.241 µM)	0.39 (≈ 0.47 µM)	0.78 (≈ 0.94 µM)	> 12.5	0.39 (≈ 0.47 µM)	> 12.5	0.39 (≈ 0.47 µM)	0.78 (≈ 0.94 µM)	> 12.5	6.25 (≈ 7.53 µM)	> 12.5	> 12.5	6.25 (≈ 7.53 µM)	6.25 (≈ 7.53 µM)	> 12.5		
CC[C@H]1OC(=O)C[C@@H](O)[C@H](C)[C@@H](O[C@@H]2O[C@H](C)[C@@H](O)[C@H](N(C)C)[C@@H]2O)[C@@H](CCN2CC(C)CC(C)C2)C[C@@H](C)C(=N\OCc2ccc(F)cc2)/C=C/C(C)=C/C1CO (some centres not stated)	0.39 (≈ 0.477 µM)	0.39 (≈ 0.477 µM)	0.39 (≈ 0.477 µM)	> 12.5	0.39 (≈ 0.477 µM)	> 12.5	0.39 (≈ 0.477 µM)	0.78 (≈ 0.953 µM)	> 12.5	3.12 (≈ 3.81 µM)	> 12.5	> 12.5	3.12 (≈ 3.81 µM)	3.12 (≈ 3.81 µM)	> 12.5		
CC[C@H]1OC(=O)C[C@@H](O)[C@H](C)[C@@H](O[C@@H]2O[C@H](C)[C@@H](O)[C@H](N(C)C)[C@@H]2O)[C@@H](CCN2CC(C)CC(C)C2)C[C@@H](C)C(=N\OCC(=O)N2CCN(c3ccccc3)CC2)/C=C/C(C)=C/C1CO (some centres not stated)	0.049 (≈ 0.0537 µM)	0.098 (≈ 0.107 µM)	4.56 (≈ 5 µM)	> 12.5	0.78 (≈ 0.855 µM)	> 12.5	0.049 (≈ 0.0537 µM)	0.39 (≈ 0.428 µM)	> 12.5	3.12 (≈ 3.42 µM)	> 12.5	> 12.5	1.56 (≈ 1.71 µM)	0.78 (≈ 0.855 µM)	> 12.5		
CC[C@H]1OC(=O)C[C@@H](O)[C@H](C)[C@@H](O[C@@H]2O[C@H](C)[C@@H](O)[C@H](N(C)C)[C@@H]2O)[C@@H](CCN2CC(C)CC(C)C2)C[C@@H](C)C(=N/OCCCCc2ccc3ncccc3c2)/C=C/C(C)=C/C1CO (some centres not stated)	1.56 (≈ 1.75 µM)	3.12 (≈ 3.49 µM)	6.25 (≈ 7 µM)	> 12.5	6.25 (≈ 7 µM)	> 12.5	6.25 (≈ 7 µM)	6.25 (≈ 7 µM)	> 12.5	> 12.5	> 12.5	> 12.5	12.5 (≈ 14 µM)	> 12.5	> 12.5		
CC[C@H]1OC(=O)C[C@@H](O)[C@H](C)[C@@H](O[C@@H]2O[C@H](C)[C@@H](O)[C@H](N(C)C)[C@H]2O)[C@@H](CCN2C[C@H](C)C[C@H](C)C2)C[C@@H](C)C(=O)/C=C/C(C)=C/[C@@H]1CO[C@@H]1O[C@H](C)[C@@H](O)[C@@H](OC)[C@H]1OC [TILMICOSIN]	0.39 (≈ 0.449 µM)	0.78 (≈ 0.897 µM)	0.78 (≈ 0.897 µM)	6.25 (≈ 7.19 µM)	1.56 (≈ 1.79 µM)	> 12.5	1.56 (≈ 1.79 µM)	0.098 (≈ 0.113 µM)	> 12.5	0.39 (≈ 0.449 µM)	> 12.5	> 12.5	0.2 (≈ 0.23 µM)	0.098 (≈ 0.113 µM)	> 12.5		
CC[C@H]1OC(=O)C[C@@H](O)[C@H](C)[C@@H](O[C@@H]2O[C@H](C)[C@@H](O[C@H]3C[C@@](C)(O)[C@@H](O)[C@H](C)O3)[C@H](N(C)C)[C@H]2O)[C@@H](CC=O)C[C@@H](C)C(=O)/C=C/C(C)=C/[C@@H]1CO[C@@H]1O[C@H](C)[C@@H](O)[C@@H](OC)[C@H]1OC [TYLOSIN]	0.098 (≈ 0.107 µM)	0.2 (≈ 0.218 µM)	0.2 (≈ 0.218 µM)	> 12.5	0.2 (≈ 0.218 µM)	> 12.5	0.098 (≈ 0.107 µM)	0.2 (≈ 0.218 µM)	> 12.5	1.56 (≈ 1.7 µM)	> 12.5	> 12.5	1.56 (≈ 1.7 µM)	0.39 (≈ 0.426 µM)	> 12.5		

Reference: ChEMBL document CHEMBL1139006, “Synthesis and in vitro antibiotic activity of 16-membered 9-O-arylalkyloxime macrolides” (2006)
